According to patent publication US12583820B2, “Broad spectrum antivirals against coronavirus” (priority 2020, dated 2026):
Like-named read-outs stand apart in the source and are kept apart here.

Columns and labels:
NV 3CLpro = NV 3CLpro (Norovirus, UniProt Q83883); experiment: biochemical; format: biochemical; settings: read-out: IC50 (μM) ± SD
[1] = tested on: NV in the replicon harboring cells (HG23 cells); experiment: microbe, parasite or virus in culture; format: cell-based, norovirus (NV); settings: read-out: EC50 (μM) ± SD
3CLpro of MERS-CoV = 3CLpro of MERS-CoV (Middle East respiratory syndrome-related coronavirus, UniProt K9N7C7); experiment: biochemical; format: biochemical
3CLpro of SARS-CoV-2 = target: T1, 3CLpro of SARS-CoV-2 (Severe acute respiratory syndrome coronavirus 2, UniProt P0DTD1); experiment: biochemical; format: biochemical
T1 construct: The codon-optimized cDNA of full length of 3CLpro of SARS-CoV-2; 6xHis (N); made in house; pET-28a(+) vector (points to E. coli, my inference)

[2] = Nonspecific cytotoxic effects (CC50), CytoTox 96 kit
[3] = tested on: Huh-7, CRFK or CCL1 cells; experiment: as above; settings: Huh-7, CRFK, or CCL1 cells, Table 7
3CLpro of SARS-CoV = 3CLpro of SARS-CoV (Severe acute respiratory syndrome coronavirus, UniProt P0C6X7); format: biochemical; settings: read-out: IC50 in enzyme assay (μM) SARS-CoV
MHV-1 = experiment: microbe, parasite or virus in culture; format: cell-based, mouse hepatitis virus (MHV); settings: Murine coronavirus, read-out: EC50 in cell culture (μM) MHV
FIPV = experiment: microbe, parasite or virus in culture; format: cell-based; settings: Alphacoronavirus 1, CRFK, read-out: EC50 in cell culture (μM) FIPV
[4] = read-out: MERS-CoV IC50 (uM) enzyme
[5] = read-out: MERS-CoV IC50(μM) Enzyme

Sequence of NV 3CLpro (Q83883 1101-1281): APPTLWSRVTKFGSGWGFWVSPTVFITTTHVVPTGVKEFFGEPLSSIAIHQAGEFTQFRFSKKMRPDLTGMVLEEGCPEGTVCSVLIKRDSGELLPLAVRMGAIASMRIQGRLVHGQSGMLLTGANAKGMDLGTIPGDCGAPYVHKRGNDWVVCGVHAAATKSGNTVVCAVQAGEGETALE
Sequence of 3CLpro of MERS-CoV (K9N7C7 3248-3553 limits assumed): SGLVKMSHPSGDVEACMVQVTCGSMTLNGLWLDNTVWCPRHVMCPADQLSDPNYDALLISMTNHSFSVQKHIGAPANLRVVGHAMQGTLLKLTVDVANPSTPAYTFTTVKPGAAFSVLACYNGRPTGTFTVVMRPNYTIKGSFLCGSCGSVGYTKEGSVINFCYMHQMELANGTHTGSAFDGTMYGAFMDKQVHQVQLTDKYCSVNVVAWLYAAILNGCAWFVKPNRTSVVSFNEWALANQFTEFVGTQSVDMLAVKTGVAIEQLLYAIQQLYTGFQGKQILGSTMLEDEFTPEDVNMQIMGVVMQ

Row | Molecule | IC50 (NV 3CLpro) [µM] | EC50 [1] [µM] | CC50 (HG23 cells) [nM] | also measured
1 | CC(C)C[C@H](NC(=O)OCCCc1cccc(Cl)c1)C(=O)N[C@@H](C[C@@H]1CCNC1=O)C(O)S(=O)(=O)O (stereo partly drawn) [Compound 6n] | 0.19 ± 0.06 | 0.09 ± 0.01 | > 100000 | –
2 | CCCCCC(=O)OC([C@H](C[C@@H]1CCNC1=O)NC(=O)[C@H](CC1CCCCC1)NC(=O)OCC(C)(C)Cc1cccc(Cl)c1)S(=O)(=O)O (stereo partly drawn) [Compound 7l] | – | 0.08 ± 0.02 | 20700 ± 4030 | –
3 | CC(C)(Cc1cccc(Cl)c1)OC(=O)N[C@@H](CC1CCCCC1)C(=O)N[C@H](C=O)C[C@@H]1CCNC1=O [Compound 5h (Scheme 2)] | 7.7 ± 1.7 | 5.4 ± 1.1 | 15600 ± 1800 | IC50 (3CLpro of MERS-CoV; [4]): > 10 µM
4 | CC(C)C[C@H](NC(=O)OCC(C)(C)Cc1cccc(Cl)c1)C(=O)N[C@@H](C[C@@H]1CCNC1=O)C(O)S(=O)(=O)O (stereo partly drawn) [Compound 6o] | 0.16 ± 0.03 | 0.15 ± 0.08 | > 100000 | –
5 | CC(C)C[C@H](NC(=O)OC1(c2cccc(Cl)c2)CC1)C(=O)N[C@@H](C[C@@H]1CCNC1=O)C(O)S(=O)(=O)O (stereo partly drawn) [Compound 6r] | 0.25 ± 0.08 | 0.55 ± 0.08 | > 100000 | –
6 | CC(C)C[C@H](NC(=O)OC(Cc1ccccc1)C1CCC(F)(F)CC1)C(=O)N[C@@H](C[C@@H]1CCNC1=O)C(O)S(=O)(=O)O (stereo partly drawn) [Compound 14c, Sodium (2S)-2-((2S)-2-(((1-(4,4-difluorocyclohexyl)-2-phenylethoxy)carbonyl)amino)-4-methylpentanamido)-1-hydroxy-3-((S)-2-oxopyrrolidin-3-yl)propane-1-sulfonate] | – | – | – | IC50 (3CLpro of MERS-CoV): 0.16 µM; IC50 (3CLpro of SARS-CoV-2): 220 nM; CC50 at 72 h [2]: > 100000 nM
7 | CC(C)C[C@H](NC(=O)OC(C)(C)Cc1cccc(Cl)c1)C(=O)N[C@H](C=O)C[C@@H]1CCNC1=O [Compound 5i (Scheme 2)] | 1.2 ± 0.5 | 0.9 ± 0.21 | > 100000 | IC50 (3CLpro of MERS-CoV; [4]): 1.1 µM
8 | CC(C)C[C@H](NC(=O)OCC(C)(C)Cc1cccc(Cl)c1)C(=O)N[C@H](C=O)C[C@@H]1CCNC1=O [Compound 5o] | – | 0.14 ± 0.04 | > 100000 | –
9 | CC(C)C[C@H](NC(=O)OC1CCC(C)(C)CC1)C(=O)N[C@@H](C[C@@H]1CCNC1=O)C(O)S(=O)(=O)O (stereo partly drawn) [Compound 1c, Sodium (2S)-2-((S)-2-((((4,4-dimethylcyclohexyl)oxy)carbonyl)amino)-4-methylpentan amido)-1-hydroxy-3-((S)-2-oxopyrrolidin-3-yl)propane-1-sulfonate] | – | – | – | IC50 (3CLpro of MERS-CoV): 0.09 µM; IC50 (3CLpro of SARS-CoV-2; read-out: IC50): 240 nM; CC50 at 72 h [2]: > 100000 nM
10 | ((1s,4S)-4-Propylcyclohexyl) methyl-d2 ((2S)-4-methyl-1-oxo-1-(((2S)-1-oxo-3-(2-oxopyrrolidin-3-yl) propan-2-yl) amino) pentan-2-yl) carbamate [Compound 9b] | – | – | – | CC50 [3]: > 100000 nM
11 | CC(C)(COC(=O)N[C@@H](CC1CCCCC1)C(=O)N[C@H](C=O)C[C@@H]1CCNC1=O)c1cccc(Cl)c1 [Compound 5d (Scheme 2)] | 0.23 ± 0.04 | 0.07 ± 0.01 | 13300 ± 1270 | IC50 (3CLpro of MERS-CoV; [5]): 1.9 µM
12 | CC(C)C[C@H](NC(=O)OCCCc1ccccc1)C(=O)N[C@H](C=O)C[C@@H]1CCNC1=O [Compound 5m] | 0.75 ± 0.07 | 0.77 ± 0.06 | > 100000 | –
13 | CC(C)C[C@H](NC(=O)OCC(C)(C)c1ccccc1)C(=O)N[C@H](C=O)C[C@@H]1CCNC1=O [Compound 5f (Scheme 2)] | 0.45 ± 0.07 | 0.65 ± 0.07 | > 100000 | IC50 (3CLpro of MERS-CoV; [5]): 0.8 µM
14 | O=C(N[C@@H](CC1CCCCC1)C(=O)N[C@@H](C[C@@H]1CCNC1=O)C(O)S(=O)(=O)O)OC1(c2cccc(Cl)c2)CC1 (stereo partly drawn) [Compound 6q] | 0.27 ± 0.04 | 0.18 ± 0.04 | 42300 ± 15600 | –
15 | CC(C)C[C@H](NC(=O)OCCCC1CCCCC1)C(=O)N[C@@H](C[C@@H]1CCNC1=O)C(O)S(=O)(=O)O (stereo partly drawn) [Compound 7f (Scheme 1), sodium (2S)-2-((S)-2-(((3-cyclohexylpropoxy)carbonyl)amino)-4-methylpentanamido)-1-hydroxy-3-((S)-2-oxopyrrolidin-3-yl)propane-1-sulfonate] | – | – | – | IC50 (3CLpro of MERS-CoV): 0.64 µM; CC50 at 72 h [2]: > 100000 nM
16 | O=C[C@H](C[C@@H]1CCNC1=O)NC(=O)[C@H](CC1CCCCC1)NC(=O)OCCCc1cccc(Cl)c1 [Compound 5j (Example 5)] | – | 0.08 ± 0.01 | 30300 ± 2830 | –
17 | CC(C)C[C@H](NC(=O)OCCCc1cccc(Cl)c1)C(=O)N[C@H](C=O)C[C@@H]1CCNC1=O [Compound 5n] | 0.26 ± 0.08 | 0.16 ± 0.06 | > 100000 | –
18 | Sodium (2S)-2-((S)-2-((((4,4-difluorocyclohexyl) methoxy-d2) carbonyl) amino)-4-methylpentanamido)-1-hydroxy-3-(2-oxopyrrolidin-3-yl) propane-1-sulfonate [Compound 11c] | – | – | – | CC50 [3]: > 100000 nM
19 | CC(C)C[C@H](NC(=O)OCCCc1ccccc1)C(=O)N[C@@H](C[C@@H]1CCNC1=O)C(O)S(=O)(=O)O (stereo partly drawn) [Compound 6m] | 0.6 ± 0.14 | 0.85 ± 0.07 | > 100000 | –
20 | CCCC1CCC(COC(=O)NC(CC(C)C)C(=O)NC(CC2CCNC2=O)C(O)S(=O)(=O)O)CC1 [Compound 8c, Sodium (2S)-1-hydroxy-2-((S)-4-methyl-2-(((((1r,4R)-4-propylcyclohexyl)methoxy)carbonyl)amino)pentanamido)-3-(2-oxopyrrolidin-3-yl) propane-1-sulfonate] | – | – | – | IC50 (3CLpro of MERS-CoV): 0.11 µM; IC50 (3CLpro of SARS-CoV-2): 210 nM; CC50 at 72 h [2]: > 100000 nM
21 | CC(C)C[C@H](NC(=O)OCc1cccc(F)c1)C(=O)N[C@@H](C[C@@H]1CCNC1=O)C(O)S(=O)(=O)O (stereo partly drawn) [Compound 18c, Sodium (2S)-2-((S)-2-((((3-fluorobenzyl)oxy)carbonyl)amino)-4-methylpentanamido)-1-hydroxy-3-((S)-2-oxopyrrolidin-3-yl)propane-1-sulfonate] | – | – | – | IC50 (3CLpro of MERS-CoV): 0.08 µM; IC50 (3CLpro of SARS-CoV-2): 310 nM; CC50 at 72 h [2]: > 100000 nM
22 | O=C(N[C@@H](CC1CCCCC1)C(=O)N[C@@H](C[C@@H]1CCNC1=O)C(O)S(=O)(=O)O)OC/C=C/c1cccc(Cl)c1 (stereo partly drawn) [Compound 6s] | 0.16 ± 0.01 | 0.07 ± 0.02 | 28300 ± 2800 | –
23 | Sodium (2S)-1-hydroxy-2-((S)-4-methyl-2-(((((1s,4S)-4-propylcyclohexyl)oxy)carbonyl) amino)pentanamido)-3-((S)-2-oxopyrrolidin-3-yl)propane-1-sulfonate [Compound 3c] | – | – | – | CC50 [3]: > 100000 nM
24 | CC(C)C[C@H](NC(=O)OC(C)C1CCC(F)(F)CC1)C(=O)N[C@@H](C[C@@H]1CCNC1=O)C(O)S(=O)(=O)O (stereo partly drawn) [Compound 12c, Sodium (2S)-2-((2S)-2-(((1-(4,4-difluorocyclohexyl)ethoxy)carbonyl)amino)-4-methylpentan amido)-1-hydroxy-3-((S)-2-oxopyrrolidin-3-yl)propane-1-sulfonate] | – | – | – | IC50 (3CLpro of MERS-CoV): 0.12 µM; IC50 (3CLpro of SARS-CoV-2): 200 nM; CC50 at 72 h [2]: > 100000 nM
25 | CC(C)(OC(=O)N[C@@H](CC1CCCCC1)C(=O)N[C@H](C=O)C[C@@H]1CCNC1=O)c1cccc(Cl)c1 [Compound 5a (Scheme 2)] | 2.9 ± 0.9 | 3.7 ± 2.3 | > 100000 | IC50 (3CLpro of MERS-CoV; [4]): 11.5 µM
26 | CC(C)C[C@H](NC(=O)OCC1CCC(F)(F)CC1)C(=O)N[C@@H](C[C@@H]1CCNC1=O)C(O)S(=O)(=O)O (stereo partly drawn) [Compound 7j (Scheme 1), sodium (2S)-2-((S)-2-((((4,4-difluorocyclohexyl)methoxy)carbonyl)amino)-4-methylpentan-amido)-1-hydroxy-3-((S)-2-oxopyrrolidin-3-yl)propane-1-sulfonate] | – | – | – | IC50 (3CLpro of MERS-CoV; read-out: IC50 in enzyme assay (μM) MERS-CoV): 0.1 µM; IC50 (3CLpro of SARS-CoV): 1.1 µM; EC50 (MHV-1): 0.16 µM; EC50 (FIPV): 0.07 µM; CC50 at 72 h ([2]; Huh-7, CRFK or CCL1 cells (confluent, 96-well plates)): > 100000 nM
27 | CC(C)C[C@H](NC(=O)OC/C=C/c1cccc(Cl)c1)C(=O)N[C@@H](C[C@@H]1CCNC1=O)C(O)S(=O)(=O)O (stereo partly drawn) [Compound 6t] | 0.11 ± 0.02 | 0.08 ± 0.02 | > 100000 | –
28 | Sodium (2S)-1-hydroxy-2-((S)-4-methyl-2-(((((1s,4S)-4-propylcyclohexyl) methoxy-d2) carbonyl) amino) pentanamido)-3-(2-oxopyrrolidin-3-yl) propane-1-sulfonate [Compound 9c] | – | – | – | CC50 [3]: > 100000 nM
29 | CC(C)C[C@H](NC(=O)OCc1c(F)c(F)c(F)c(F)c1F)C(=O)N[C@@H](CC1CCNC1=O)C(O)S(=O)(=O)O (stereo partly drawn) [Compound 21c, Sodium (2S)-1-hydroxy-2-((S)-4-methyl-2-((((perfluorophenyl)methoxy)carbonyl)amino)pentanamido)-3-(2-oxopyrrolidin-3-yl) propane-1-sulfonate] | – | – | – | IC50 (3CLpro of MERS-CoV): 0.07 µM; CC50 at 72 h [2]: > 100000 nM
